Where two headings read alike, the source gives them in different places.
Assays:
[1] = First-in-human study: pharmacokinetics, safety and tolerability; assay type: in vivo; details: for Cmax / Tmax / half-life / bioavailability: both sexes, human, plasma; for bioavailability: n=3, read-out: absolute bioavailability (F)
Experimental: In a first-in-human, open-label, exploratory study, the pharmacokinetics, safety and tolerability of RX-3117 were evaluated. The study duration was 14-15 days (7-day screening period; 3-day treatment period; 4 (+1)-day safety follow-up period). Nine adult male and female subjects with histologically confirmed, solid tumors enrolled in and completed the study. The subjects received RX-3117 (n=3 subjects per dose) as a single oral dose (50 mg or 100 mg) or a single intravenous dose (20 mg).

[2] = system: PCFT; assay: PCFT mediated transport of radiolabeled MTX; assay type: cell-based, human; details: CEM cells, 24 hr; RX-3117 29.6 μM; DAC positive control
Excerpt: In this study, the following cell lines were used: (1) CCRF-CEM cells and its MTX resistant variant CEM-MTX, characterized by a deficiency of the reduced folate carrier (RFC) (Jansen G., et al., JBC 273 (1998) 30189-30198). The PCFT gene in CEM cells is highly methylated. (Gonen N., et al., BBRC 376 (2008) 787-92.); (2) CEM cells cultured in RPMI medium with 10% fetal bovine serum (FBS); and (3) A549 and SW1573 non-small cell lung cancer (NSCLC) and A2780 ovarian cancer cell lines cultured in DMEM medium with 10% FBS.
MTX transport was measured using radiolabeled MTX in CEM wild type and CEM-MTX cell lines. CEM cells have a high RFC activity. CEM-MTX are completely deficient in RFC-mediated transport. CEM cells have a highly methylated PCFT transporter and a very low PCFT mediated transport (Gonen N., et al., BBRC 376 (2008) 787-92). MTX transport at pH 7.4 is predominantly RFC mediated and less than 2% by PCFT. Folic acid was used to inhibit PCFT mediated transport. […] CEM and CEM-MTX cells were exposed to 29.6 μM RX-3117 and to 0, 19 μM aza-CdR as a positive control. MTX transport was measured after 24 hr to the drugs in a 3 minutes uptake assay using 2 μM [3′,5,′7-3H]-MTX.

[3] = molecular target: cytidine deaminase (CDA) (Homo sapiens, UniProt P32320); details: cited from earlier work
cytidine deaminase (CDA), sequence (P32320 whole entry, species assumed): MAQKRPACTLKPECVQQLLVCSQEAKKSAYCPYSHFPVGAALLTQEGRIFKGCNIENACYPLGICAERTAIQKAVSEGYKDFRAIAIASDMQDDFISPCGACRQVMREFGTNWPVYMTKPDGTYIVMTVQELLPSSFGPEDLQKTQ

[4] = system: DNMT1; assay: DNMT enzyme activity in isolated nuclei (DNA methyltransferase assay kit); assay type: cell-based, human; details: A2780 nuclear extracts, 1 μM, 24 hr
Experimental: (§1) DNMT1 protein expression was measured by Western Blotting after exposure to RX-3117 for 24 or 48 hr. DNMT1 RNA expression was measured by real-time PCR after 24 and 48 hr exposure to RX-3117. DNMT enzyme activity was measured in isolated nuclei after exposure 1 μM RX-3117 or 5 μM aza-CdR using a DNA methyltransferase assay kit provided by EpiGentek using the ability of a CpG dinding domain to bind to methylated DNA. In A549 cells the effect of 5 μM RX-3117 on overall methylation was measured with a specific antibody against 5-methyl-cytosine. Bands on Western blots were visualized using appropriate InfraRedDye using an Odyssey InfraRed imager.

[5] = system: Caki-1; assay: Mice xenograft model, tumor growth inhibition; assay type: in vivo; details: Caki-1 xenograft, oral 500 mg/kg, TIWK
Excerpt: A novel, orally bioavailable nucleoside analogue, RX-3117, is a prodrug activated intracellularly by Uridine Cytidine Kinase 2 (UCK2) that is thought to be expressed predominantly in tumor tissue. RX-3117 is currently being evaluated in a Phase Ib/IIa multi-center, open-label clinical study in patients with advanced pancreatic and bladder cancer. In this study, the relation between UCK2 tissue protein expression and the efficacy of RX-3117 in mice xenograft models and also UCK2 protein expression in a panel of human cancer tissues relative to normal tissue were studied.
The immunoblotting protein level of UCK2 normalized to beta-actin and corresponding tumor growth inhibition (oral RX-3117 dose of 500 mg/kg, TIWK) were 57 and 67% in MiaPaCa2, 30 and −5% in BxPC3, 199 and 92% in Colo-205, 21 and 90% in Caki-1, 2 and 39% in A549, and 146 and 79% in H460, respectively. […] Average H-Scores of UCK2 in cancer tissues vs. normal tissues were 104 vs. 9 in lung, 97 vs. 20 in bladder, 67 vs. 41 in pancreas and 39 vs. 21 in colon, respectively.

[6] = system: DNMT1; assay: DNMT1 protein expression by Western Blotting; assay type: cell-based, human; details: for downregulation of DNMT1 protein expression: A549 and SW1573, 5-50 μM
Experimental: The mechanism of cell cycle arrest was investigated by measuring cell cycle proteins expression using western blotting. The influence of RX-3117 on protein expression during different treatment conditions was analyzed by western blot. Cells were lysed using cell lysis buffer 1× (Cell Signaling, Danvers, Mass., USA) containing 4% protease inhibitor cocktail (Roche Diagnostics, Mannheim, Germany) on ice for 30 minutes and centrifuged for 10 minutes at 4° C. at 14,000 rpm. The protein containing supernatant was collected and the Bio-Rad assay was performed to determine protein amount as described in Lemos et al., Pharmacogenomics, 12(2):159-70 (2011). The following antibodies were used for protein expression: DNMT1 (Cell Signaling, 1:1000 #5032S), DNMT3A (Cell Signaling 1:1000 #2160S), DNMT3B (Abcam, 1; 1000), Chk2 (Cell Signaling 1:1000 #6334P), Chk1 (Cell Signaling 1:1000), p-CDC25C (Cell Signaling 1:1000 #4901S), Cdk1 (Cell Signaling 1:1000 #9112S), Cdk2 (Cell Signaling 1:1000 #2546S), wee1 (Cell Signaling 1:1000), 5139-γH2A.X (Cell Signaling, 1:1000), β actin (Sigma, 1:10,000), Caspase 9 (Cell Signaling, 1:1000), PARP (Roche 2003, 1:1000), p53 (Cell Signaling, 1:1000, #9282). The antibodies were diluted in 1:1 solution Rockland buffer (Rockland Inc., Philadelphia, Pa., USA) and PBS supplemented with 0.05% Tween® 20. The proteins were separated in 20% SDS-PAGE and transferred to a PVDF membrane. For fluorescent signal secondary antibodies goat anti-mouse InfraRedDye and goat anti-rabbit InfraRedDye were used. The proteins were detected by an Odyssey InfraRed Imager (Li-COR Bioscience, Lincoln, Nebr., USA).
as §1

In the case of `Nc1ccn([C@@H]2C(F)=C(CO)[C@@H](O)[C@H]2O)c(=O)n1` [RX-3117, 4-amino-1-((1S,4R,5S)-2-fluoro-4,5-dihydroxy-3-hydroxymethyl-cyclopent-2-enyl)-1H-pyrimidin-2-one], the “increase of intravenous Cmax over the peak concentrations of the oral doses” value ([1]; 20 mg intravenous vs 50 and 100 mg oral) was roughly 4 fold, the Cmax ([1]; single intravenous dose 20 mg) was 1140 ng/mL and the Tmax ([1]; single intravenous dose 20 mg, read-out: Tmax) was 0.25 h. The Cmax ([1]; single oral dose 50 mg) was 303 ng/mL, the half-life ([1]; single oral dose 50 mg) was 13.9 h and the bioavailability ([1]; single oral dose 50 mg) was 55.7%. It also gave a Tmax ([1]; single oral dose 50 mg, read-out: mean Tmax) of 2.16 h, a Cmax ([1]; single oral dose 100 mg) of 311 ng/mL and a half-life ([1]; single oral dose 100 mg) of 20.9 h. For the same compound, the bioavailability ([1]; single oral dose 100 mg) was 33.4%, the Tmax ([1]; single oral dose 100 mg, read-out: mean Tmax) was 2.49 h and the “adverse events (AE, TEAE, SAE)” value ([1]; single 50 or 100 mg oral or 20 mg intravenous dose) was “No adverse event”. For the same compound, the safety and tolerability ([1]; single 50 or 100 mg oral or 20 mg intravenous dose, all subjects) was “safe and well-tolerated”, the “increase of PCFT mediated transport of MTX” value [2] was 4 fold and the “substrate for cytidine deaminase (CDA)” value ([3]; Peters et al. 2013) was “poor substrate”. For the same compound, the rate of deamination ([3]; compared with gemcitabine) was “much slower than gemcitabine”, the “inhibition of DNMT1 activity” value [4] was 32% and the tumor growth inhibition [5] was 90%. For the same compound, the DNMT1 protein expression ([6]; A549, at higher dose (1-75 μM tested)) was “down regulates”, the “downregulation of DNMT1 protein expression” value ([6]; 24 hour exposure) was 5-20% and the “downregulation of DNMT1 protein expression” value ([6]; 48 hr) was greater than 90%. For the same compound, the DNMT1 protein expression ([6]; A2780, 1 μM, 24 hr) was “protein down regulation was already observed”.
